# Experimental data: US9072753B1, “Gargle method to reduce the duration of common cold symptoms” (priority 2001, dated 2015)
# Entries after “also recorded” stand apart in the source; their conditions may differ. Where two headings read alike, the source gives them in different places.
# Assays:
# Rhinovirus 14 = experiment: Antiviral activity testing against rhinovirus (Rhinovirus 14 in KB cells); format: cell-based; conditions: for Virus Inhibition: 4 values and above indicate excellent antiviral activity
# common cold [1] = experiment: Case examples, nonalcoholic mouthwash remedies in subjects with a cold; format: in vivo, human; conditions: single subject per example; 15 ml mouthwash three times a day for at least two days
# Description: In order to facilitate a more complete understanding of the invention, a number of Examples are provided below. However, the scope of the invention is not limited to specific embodiments disclosed in these Examples, which are for purposes of illustration only. In each of the following Examples, the subjects were administered one tablespoon (15 ml) of remedy in a mouthwash formulation three times a day for at least two days comprising: […]
# [2] = tested on: Madin Darby Canine Kidney (MDCK) cells; experiment: Toxicity of materials in the influenza test (MDCK cells); format: cell-based; conditions: Table 2
# [3] = tested on: Influenza A/Hong Kong/68 (H3N2); experiment: Antiviral activity testing against influenza virus in MDCK cells; format: cell-based; conditions: Influenza A/Hong Kong/68 (H3N2) in MDCK cells; for Virus Inhibition: 4 values and above indicate excellent antiviral activity
# From the text: Results of antiviral invitro testing performed at baylor college of medicine department of molecular virology & microbiology.
# [4] = healthy HIV-negative humans; cited from earlier work
# [5] = tested on: RNA-dependent DNA polymerases (reverse transcriptases) of both Moloney and Rauscher leukemia viruses; conditions: cited from earlier work
# [6] = tested on: broad spectrum of viruses; conditions: cited from earlier work
# cells in tissue culture = conditions: high concentrations; cited from earlier work
# [7] = in vivo; cited from earlier work
# myxoviruses = conditions: cited from earlier work
# common cold [8] = conditions: after seven days; 37 zinc-treated subjects; cited from earlier work
Compound,Virus Inhibition (Rhinovirus 14),Recovery from the cold (common cold [1]),Toxicity [2],Virus Inhibition [3],Toxicity (KB cells; human),also measured
O=C1O[C@H]([C@@H](O)CO)C(O)=C1O [Ascorbic Acid],4,within one day; also recorded: within two days,,,,
O=C([O-])O.[Na+] [Baking Soda],4,within one day; also recorded: within two days; also recorded: within three days,0,2,,Selective Inhibition (Rhinovirus 14): 2; Toxicity (KB cells): 2; Selective Inhibition [3]: 4
CCCc1cc(=O)oc2c3c(c4c(c12)OC(C)(C)C=C4)O[C@H](C)[C@@H](C)[C@@H]3O [Calanolide A],,,,,,Safety and tolerability [4]: safe and well tolerated
O=C(O)CC(O)(CC(=O)O)C(=O)O [Citric Acid],6,within three days; also recorded: within one day; also recorded: within four days; also recorded: within two days; also recorded: within ten days; also recorded: within five days,6,6,6,
OO [Hydrogen Peroxide],7,,6,6,7,
O=C(O)CC(O)C(=O)O (centres unmarked) [Malic Acid],6,,6,6,6,
COC(=O)C1=CO[C@@H](C)[C@@H](C=O)[C@@H]1CC(=O)[O-].COC(=O)C1=CO[C@@H](C)[C@@H](C=O)[C@@H]1CC(=O)[O-].[Ca+2] [calcium elenolate],,,,,,Inhibition of reverse transcriptases [5]: inhibits; Virucidal activity in vitro [6]: virucidal for a broad spectrum of viruses in vitro; Toxicity to cells in tissue culture (cells in tissue culture): relatively nontoxic; Tolerability in animals [7]: well tolerated; Inactivation of myxoviruses (myxoviruses): inactivates all myxoviruses so far tested
zinc,,,,,,Subjects asymptomatic (common cold [8]): 86%
